Data as given in PMC7811009, “Oxytocin modulates local topography of human functional connectome in healthy men at rest” (Communications Biology, 2021).

Assays:
Assay type in all cases: in vivo
[1] = system: human functional connectome at rest; test: Resting-state BOLD-fMRI, graph theory: node degree (mesoscale); same doses, time and cohort; details: post-hoc paired t-tests, FDR
Procedure: (§1) Each experimental session began with the treatment administration protocol that lasted about 22 min in total (Fig. 8, lower panel). After drug administration, participants were guided to the MRI scanner, where eight pulsed continuous arterial spin labelling scans (each lasting approx. eight minutes) were acquired, spanning 15–104 min post-dosing (data reported elsewhere[11]). The 8-min resting state BOLD-fMRI scan reported herein was obtained at about 57 ± 3.38 min post-dosing. Participants were instructed to lie still and maintain their gaze on a centrally placed fixation cross during scanning. We assessed participants’ levels of alertness (anchors: alert-drowsy) and excitement (anchors: excited-calm) using visual analogue scales (0–100) at three different time-points during the scanning session to evaluate subjective drug effects across time (data reported elsewhere[11]).
(§2) We used the CONN functional connectivity toolbox[97] to generate brain-wide functional connectivity matrices for each subject/session. […] The default atlas of the CONN toolbox includes 132 non-overlapping ROIs spanning cortical and subcortical areas and the cerebellum using a combination of the cortical and subcortical areas from the FSL Harvard-Oxford atlas and of the cerebellar areas of the Automatic Anatomical Labelling atlas (Supplementary data 1 for a detailed description). […] Finally, we normalized our correlation measures to z-scores using the Fisher’s r-z transform per subject/session.
We then used our z-transformed connectivity matrices to construct brain graphs representing a functional connectivity network for each subject/session. We used an undirected signed weighted approach in which we kept information about the sign and weight of each of the connections between the nodes (ROIs) of our network, without making assumptions about the direction of this relationship. These connectivity matrices represent fully connected networks, where each node corresponds to each of the ROIs we used to build the functional connectivity matrices and each edge represents the z-transformed value of functional connectivity between a pair of nodes. […] We used the fully weighted networks to calculate equi-sparse networks by retaining a fixed percentage (K) of the total amount of possible edges. […]
(§3) For each of the graph metrics analysed, we summarized the different values over the range of thresholds using the area under the curve (AUC), instead of applying multiple testing for each metric/threshold. […]

[2] = system: human functional connectome at rest; test: Resting-state BOLD-fMRI, graph theory: nodal local efficiency (mesoscale); same doses, time and cohort; details: post-hoc paired t-tests, FDR
Procedure: as §1, §2
We then used our z-transformed connectivity matrices to construct brain graphs representing a functional connectivity network for each subject/session. We used an undirected signed weighted approach in which we kept information about the sign and weight of each of the connections between the nodes (ROIs) of our network, without making assumptions about the direction of this relationship. […]
as §3

[3] = system: human functional connectome at rest; test: Resting-state BOLD-fMRI: mean brain-wide functional connectivity (macroscale); details: repeated measures one-way ANOVA, F(2.271, 34.070) = 0.774, p = 0.484
Procedure: as §1
MRI data were acquired on a 3 T MR750 system (GE Healthcare, Waukesha, Wisconsin) with a 32-channel head coil. Functional data was acquired using a shot multi-echo echo planar imaging (EPI) sequence (TR = 2500 ms, TE’s = 12, 28, 44 and 60 ms, FA = 80°, FOV = 240 × 240 mm^2, Matrix = 64 × 64, Slice thickness = 3 mm, 32 continuous descending axial slices, resolution = 3.75 × 3.75 × 3 mm). […] The resting state fMRI scan lasted 8 min 10 s, with collection of a total of 192 volumes for each echo. […]

[4] = system: human functional connectome at rest; test: Resting-state BOLD-fMRI, graph theory: nodal betweenness-centrality (mesoscale); 40 IU intranasal (spray/nebuliser) or 10 IU intravenous, about 57 min post-dosing, 16 healthy men; details: post-hoc paired t-tests, FDR
Procedure: as §1, §2
We then used our z-transformed connectivity matrices to construct brain graphs representing a functional connectivity network for each subject/session. We used an undirected signed weighted approach in which we kept information about the sign and weight of each of the connections between the nodes (ROIs) of our network, without making assumptions about the direction of this relationship. These connectivity matrices represent fully connected networks, where each node corresponds to each of the ROIs we used to build the functional connectivity matrices and each edge represents the z-transformed value of functional connectivity between a pair of nodes. […] We used the fully weighted networks to calculate equi-sparse networks by retaining a fixed percentage (K) of the total amount of possible edges. In order to determine systematic pharmacological effects on the network’s topological organization that are not dependent on the choice of an arbitrary threshold, we chose a range of sparsity thresholds from 5 to 34%, with steps of 1%, based on previous evidence showing the characteristic small-world behaviour of human brain networks is most consistently observed for this range[30]. For each network and sparsity level, we used the MATLAB functions provided with the Brain Connectivity Toolbox[16] to compute four global and regional network metrics: global efficiency, node degree, local efficiency and betweenness-centrality. Details on the calculation of each of these metrics have been described elsewhere. The combination of these four metrics allows us to test for treatment effects on connectivity at both global and regional levels, taking into account complementary aspects of functional integration of information exchange within the brain network. […]
as §3

SMILES: CC[C@H](C)[C@@H]1NC(=O)[C@H](Cc2ccc(O)cc2)NC(=O)[C@@H](N)CSSC[C@@H](C(=O)N2CCC[C@H]2C(=O)N[C@@H](CC(C)C)C(=O)NCC(N)=O)NC(=O)[C@H](CC(N)=O)NC(=O)[C@H](CCC(N)=O)NC1=O [oxytocin]
- Nodes with decreased node degree compared to placebo ([1]; intravenous, 10 IU): decreased the node degree of the precuneus and right temporal pole
- Nodes with increased node degree compared to placebo ([1]; nebuliser, 40 IU intranasal): increased the node degree of the left posterior superior temporal gyrus and left cerebellum (area 7)
- Nodes with decreased node degree compared to placebo ([1]; spray, 40 IU intranasal): decreased the node degree of the right posterior inferior temporal gyrus
- Nodes with increased node degree compared to placebo ([1]; spray, 40 IU intranasal): increased node degree of the brainstem, left cerebellum (area 1) and right intracalcarine cortex
- Nodes with increased local efficiency compared to placebo ([2]; intravenous, 10 IU): increased the local efficiency of the right superior frontal gyrus, right frontal pole, anterior cingulate, left cuneal cortex, right posterior supramarginal gyrus and the brainstem
- Nodes with increased local efficiency compared to placebo ([2]; nebuliser, 40 IU intranasal): increased the local efficiency of the right cuneal cortex and the left posterior supramarginal gyrus
- Nodes with increased local efficiency compared to placebo ([2]; spray, 40 IU intranasal): increased the local efficiency of the right superior frontal gyrus, right anterior and posterior medial temporal gyri, right posterior superior temporal gyrus, right cuneal cortex and left cerebellum (area 1)
- Differences in mean functional connectivity across the four treatment conditions [3]: no significant differences
- Nodes with decreased betweenness-centrality compared to placebo ([4]; intravenous, 10 IU): decreased the betweenness-centrality of the right amygdala and the anterior parahipoccampal gyrus
- Nodes with increased betweenness-centrality compared to placebo ([4]; intravenous, 10 IU): increased the betweenness-centrality of the right and left occipital poles, left postcentral gyrus, right supramarginal gyrus and left and right cerebellum (areas 4–5 and area 10, respectively)
- Nodes with increased betweenness-centrality compared to placebo ([4]; nebuliser, 40 IU intranasal): increased the betweenness-centrality of the temporo-occipital area of the left middle temporal gyrus and the left cerebellum (area 7)
- Nodes with decreased betweenness-centrality compared to placebo ([4]; spray, 40 IU intranasal): decreased the betweenness-centrality of the precuneus, right posterior supramarginal and middle temporal gyri, the left anterior middle temporal gyrus and the right cerebellum (area 9)
- Nodes with increased betweenness-centrality compared to placebo ([4]; spray, 40 IU intranasal): increased the betweenness-centrality of the right orbitofrontal cortex, left lateral occipital cortex, right temporal occipital fusiform cortex and left occipital pole
